Reference: patent US20110281794A1, “C[…]-[…] A[…] ADM[…] A BRAIN-DEAD, HEART-BEATING POTENTIAL ORGAN DONOR” (VIVOLINE MEDICAL AB, priority 2008, published 2011)

How the values were obtained:
[1] = cited from earlier work
[2] = in vivo; cited from earlier work
[3] = target: NET (nor-epinephrine transporter) (Homo sapiens, UniProt P23975); conditions: cited from earlier work
[4] = test system: brain-dead, heart-beating cadaver of a pig; test: Blood pressure and organ maintenance in brain-dead, heart-beating pig under intravenous infusion; format: in vivo
Protocol: The following ingredients: 1 mg (1 ml) adrenaline, 1 mg (1 ml) nor-adrenaline, 0.3 mg (3 ml) T3, 300 mg (3 ml) cortisone, […] (9 ml) Minirin and 1 mg (3 ml) cocaine were dissolved in 50 ml physiological sodium chloride solution.
For reducing the risk of diabetes insipidus, a bolus of […] Minirin was given at the start of the treatment.
The inventor has performed more than 20 experiments with pigs and using cocaine in combination with adrenaline and nor-adrenaline.
FIG. 4 is a diagram over blood pressure during an experiment similar to Experiment 1.

alfa-1 = test: Potency as replacement of nor-adrenaline (alfa-1-agonist)
From the text: In some embodiments, the adrenaline and/or nor-adrenaline may be partly or entirely replaced by an equivalent substance. For example, phenylephrine is an alfa-1-agonist and may replace nor-adrenaline.

Sequence of NET (nor-epinephrine transporter) (P23975 whole entry, species assumed, the tested form may be a part): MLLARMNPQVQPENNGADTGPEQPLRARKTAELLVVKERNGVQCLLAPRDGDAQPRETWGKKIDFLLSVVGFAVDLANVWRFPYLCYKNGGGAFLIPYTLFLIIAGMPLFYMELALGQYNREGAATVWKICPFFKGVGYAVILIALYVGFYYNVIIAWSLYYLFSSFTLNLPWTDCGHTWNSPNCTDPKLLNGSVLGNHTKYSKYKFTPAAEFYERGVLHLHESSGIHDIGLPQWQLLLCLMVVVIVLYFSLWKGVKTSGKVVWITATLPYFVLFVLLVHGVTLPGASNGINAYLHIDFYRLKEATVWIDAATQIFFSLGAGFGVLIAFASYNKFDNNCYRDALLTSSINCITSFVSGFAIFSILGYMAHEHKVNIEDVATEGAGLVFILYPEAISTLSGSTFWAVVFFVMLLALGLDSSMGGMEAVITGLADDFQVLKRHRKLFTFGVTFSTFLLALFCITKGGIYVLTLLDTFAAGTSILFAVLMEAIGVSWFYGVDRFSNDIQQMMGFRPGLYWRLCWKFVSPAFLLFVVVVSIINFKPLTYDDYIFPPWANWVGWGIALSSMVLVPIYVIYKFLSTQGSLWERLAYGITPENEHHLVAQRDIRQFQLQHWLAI

SMILES: NC(=O)CC[C@@H]1NC(=O)[C@H](Cc2ccccc2)NC(=O)[C@H](Cc2ccc(O)cc2)NC(=O)[C@@H](N)CSSC[C@@H](C(=O)N2CCC[C@H]2C(=O)N[C@@H](CCCN=C(N)N)C(=O)NCC(N)=O)NC(=O)[C@H](CC(N)=O)NC1=O [ADH]
- half-life-time [1]: about 15 minutes

SMILES: CCN(CC)CC(=O)Nc1c(C)cccc1C [Lidocaine]
- effect of infusion on blood pressure [2]: vasodilatation and a lowering of the blood pressure

SMILES: CNCCCN1c2ccccc2CCc2ccc(Cl)cc21 [Norclomipramine]
- potency among NET inhibitors [3]: highest

SMILES: CNCCCC1c2ccccc2C=Cc2ccccc21 [Protriptylin]
- potency among NET inhibitors [3]: highest

SMILES: CC(N)Cc1ccccc1 (stereo not drawn) [amphetamine, alpha-methylphenethylamine]
- increase of mean arterial pressure ([4]; added at 29.5 hours to infusion solution of Experiment 1 without cocaine, constant until 36 hours): about 15 mmHg

SMILES: COC(=O)[C@H]1[C@@H](OC(=O)c2ccccc2)C[C@@H]2CC[C@H]1N2C [cocaine, benzoylmethyl ecgonine]
- potentiation of the effect of blood circulating nor-adrenaline (vasoconstriction) ([4]; added together with nor-adrenaline, compared with cocaine): much lower levels of nor-adrenaline
- blood pressure maintained at a constant level ([4]; more than 20 experiments with pigs, in combination with adrenaline and nor-adrenaline, over 24 hours): 70 mmHg

SMILES: CNCCCN1c2ccccc2CCc2ccccc21 [desipramine]
- mean pressure reached on infusion ([4]; Experiment 2, infusion 1.7 to 3.2 ml/hour with adrenaline and nor-adrenaline, from a mean pressure of about 40 mmHg): 80 mmHg
- blood pressure after infusion rate was decreased ([4]; Experiment 2, infusion rate decreased to 2.5 and 1.7 ml/hour, never decreased further): about 60 mmHg
- half-life time [1]: 30 h

SMILES: CNC[C@H](O)c1cccc(O)c1 [phenylephrine]
- potency relative to nor-adrenaline (times less potent) (alfa-1): about 5 times
